# Where two headings read alike, the source gives them in different places.
# Legend:
# [1] = human plasma, cited from earlier work
# [2] = target: T1, rNav1.2 sodium channels (HEK-293 cells) (Rattus norvegicus, UniProt P04775); test: 5 Hz train protocol, QPatch automated patch-clamp; format: cell-based; conditions: for τon / UD (use-dependence of the inhibition) / τoff / Rev (reversibility) / inhibition at 100 µM: 100 μM; for τoff: 500 s assigned where irreversible; for Rev (reversibility): Rev = A5/A1 after washout; for inhibition at 100 µM / potency estimated from few doses / inhibition at 300 µM: HEK293; for inhibition at 100 µM / inhibition at 300 µM: read-out: Inh (inhibited fraction); for potency estimated from few doses: −90 mV, read-out: IC50;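 as to UD (use-dependence of the inhibition): UD = (A3/A4)/(A1/A2) as ratios of peak amplitudes from Figure 1A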
# T1 sequence (P04775 whole entry): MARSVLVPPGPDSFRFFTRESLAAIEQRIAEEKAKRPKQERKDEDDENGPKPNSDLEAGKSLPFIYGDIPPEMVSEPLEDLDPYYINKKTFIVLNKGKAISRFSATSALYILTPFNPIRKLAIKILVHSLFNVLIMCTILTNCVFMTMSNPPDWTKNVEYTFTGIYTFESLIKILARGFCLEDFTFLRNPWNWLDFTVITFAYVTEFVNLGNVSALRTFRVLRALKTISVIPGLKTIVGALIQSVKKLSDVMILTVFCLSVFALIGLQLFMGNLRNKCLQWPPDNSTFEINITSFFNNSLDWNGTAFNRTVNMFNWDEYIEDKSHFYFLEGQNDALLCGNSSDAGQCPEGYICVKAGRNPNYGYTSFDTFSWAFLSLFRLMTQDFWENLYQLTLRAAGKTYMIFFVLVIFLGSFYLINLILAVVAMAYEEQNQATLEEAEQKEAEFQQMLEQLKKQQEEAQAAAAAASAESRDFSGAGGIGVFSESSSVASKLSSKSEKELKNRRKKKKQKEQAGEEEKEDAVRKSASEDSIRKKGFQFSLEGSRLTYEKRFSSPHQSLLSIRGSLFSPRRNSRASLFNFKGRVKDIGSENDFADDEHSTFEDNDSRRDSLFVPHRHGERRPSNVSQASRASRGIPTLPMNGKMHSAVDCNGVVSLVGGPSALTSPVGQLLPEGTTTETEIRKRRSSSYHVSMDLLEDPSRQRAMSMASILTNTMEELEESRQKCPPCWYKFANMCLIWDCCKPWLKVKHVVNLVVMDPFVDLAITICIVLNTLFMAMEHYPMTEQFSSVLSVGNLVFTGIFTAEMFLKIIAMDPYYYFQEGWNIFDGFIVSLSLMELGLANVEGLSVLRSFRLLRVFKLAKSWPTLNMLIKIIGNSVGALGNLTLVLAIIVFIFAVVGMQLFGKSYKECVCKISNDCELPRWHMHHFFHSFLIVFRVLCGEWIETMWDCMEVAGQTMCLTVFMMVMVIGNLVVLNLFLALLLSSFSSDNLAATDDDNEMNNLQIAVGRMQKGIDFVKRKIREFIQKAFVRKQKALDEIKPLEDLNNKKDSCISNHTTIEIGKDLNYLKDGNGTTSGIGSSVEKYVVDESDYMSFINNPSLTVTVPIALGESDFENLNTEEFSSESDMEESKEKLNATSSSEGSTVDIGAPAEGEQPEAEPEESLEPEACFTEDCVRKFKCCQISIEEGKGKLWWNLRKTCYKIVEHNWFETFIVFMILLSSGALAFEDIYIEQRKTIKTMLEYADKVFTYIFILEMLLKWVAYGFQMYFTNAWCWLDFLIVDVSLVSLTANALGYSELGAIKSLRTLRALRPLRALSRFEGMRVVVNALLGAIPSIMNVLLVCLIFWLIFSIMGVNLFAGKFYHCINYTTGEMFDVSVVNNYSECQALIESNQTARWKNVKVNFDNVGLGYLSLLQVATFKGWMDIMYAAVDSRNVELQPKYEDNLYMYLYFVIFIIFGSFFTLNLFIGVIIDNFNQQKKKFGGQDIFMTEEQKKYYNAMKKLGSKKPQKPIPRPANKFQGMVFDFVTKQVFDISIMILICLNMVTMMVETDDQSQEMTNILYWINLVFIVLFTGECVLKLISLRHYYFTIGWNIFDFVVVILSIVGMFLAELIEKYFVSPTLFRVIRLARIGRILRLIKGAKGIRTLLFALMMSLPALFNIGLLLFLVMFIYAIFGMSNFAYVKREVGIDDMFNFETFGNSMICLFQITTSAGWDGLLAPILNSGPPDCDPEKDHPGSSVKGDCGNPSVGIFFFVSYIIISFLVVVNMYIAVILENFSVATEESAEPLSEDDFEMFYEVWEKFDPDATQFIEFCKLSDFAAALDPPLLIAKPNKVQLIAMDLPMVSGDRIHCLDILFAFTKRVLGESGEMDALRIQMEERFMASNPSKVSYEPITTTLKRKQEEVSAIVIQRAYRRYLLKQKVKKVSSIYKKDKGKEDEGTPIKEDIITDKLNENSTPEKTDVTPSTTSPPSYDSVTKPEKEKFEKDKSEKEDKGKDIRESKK
# Excerpt: The dynamics of the onset and offset of inhibition was monitored using 5 Hz trains of five depolarizing pulses from a holding potential of −90 mV to −10 mV. The trains were repeated every 20 s. Drugs were applied after 10 control trains and 10 trains were delivered in the presence of the drug. The drug was then washed out, and the 10 trains were repeated.
# We measured inhibition (Inh; from which we calculated IC50 values as described in Materials and Methods), reversibility of inhibition (Rev) and use-dependence (UD), as well as time constant of onset (τon) and offset (τoff). The calculation of IC50, quantification of Rev and UD, and the determination of time constants are illustrated in Figure 1A. Because τon should be concentration-dependent if we assume a single binding reaction, we excluded it from the analyses. […] Comments on the interpretation of these properties (Rev, […] and UD) are in Results S1.
# (§1) A)–D) Peak amplitudes of evoked currents (5 Hz trains of 5 depolarizations from −90 to −10 mV) are plotted against time. Black dots: Control. Grey dots: Drug perfusion. […] Calculation of properties of inhibition is illustrated. […] E) Calculation of Kr and Ki values from steady-state availability curves.
# (§2) HEK-293 cells stably expressing rNav1.2 sodium channels were obtained from NeuroSearch (Ballerup, Denmark).
# (§3) Cells were automatically prepared for application to the chips (centrifuged and washed twice, then resuspended in extracellular solution) as described previously. Composition of the extracellular solution was: (in mM): 140 NaCl, 3 KCl, 1 CaCl2, 1 MgCl2, 0.1 CdCl2, 20 TEA-Cl, 5 HEPES, adjusted to pH 7.3, Osmolality: ∼320 mOsm.
# (§4) All electrophysiological experiments were conducted on Qpatch-16 or QPatch HT instruments using QPlate™ chips. For a detailed description of the instrument and the patch-clamp chips see [37], [38]. Data were sampled at a frequency of 25 kHz and filtered at 5 kHz. […] The amplifier was controlled and the data were collected by the Sophion QPatch client software. For initial data analysis the QPatch software was used. Built-in amplifiers provide an improved method for series resistance compensation. Leak subtraction (based on a standard P/n protocol) was used to subtract the capacitive component of currents.
# From this protocol we extracted five parameters, as illustrated in Figure 1A. We calculated inhibition of a single “cc” concentration: Inh = (amplitudectr – amplitudedrug)/amplitudectr.
# [3] = target: T1, rNav1.2 sodium channels (HEK-293 cells); test: steady-state inactivation protocol (availability curves), QPatch automated patch-clamp; format: cell-based; conditions: 100 µM; for inhibition at 100 µM: HEK293, read-out: Inh (inhibited fraction) at holding potential −150 mV
# Excerpt: as §1
# Standard steady-state inactivation protocols were used to measure the shift of steady-state availability curve caused by the drugs. Currents were evoked by a 10 ms test pulse to −10 mV, preceded by 400 ms pre-pulses from −150 to −30 mV. […] Because the inhibition at hyperpolarized potentials (Inh−150), and the shift of the availability curves (ΔV1/2) are both concentration-dependent properties, we calculated affinities to hyperpolarized and depolarized states (“resting state affinity”: Kr, and “inactivated state affinity”: Ki), which, on the other hand, are concentration-independent characteristics of individual drugs. Calculation of Kr and Ki values are described in Materials and Methods, and illustrated in Figure 1E. State-dependence (SD) was quantified as the ratio Kr/Ki.
# as §2, §3, §4
# Inactivated affinity (Ki) values were calculated assuming a simple four-state model of drug binding and channel gating, using two separate methods: (1) from the shift of the availability curve (ΔV1/2), the slope of the Boltzmann fit of the availability curve (k) and Kr, using the formula described by Bean, Cohen and Tsien (Ki−ΔV1/2; see Figure 1E), or (2) from the apparent affinity (Kapp) at a certain pre-pulse potential, which was calculated from the inhibition (e.g. Inh−60) as described above, and the availability (h) at the same pre-pulse potential, using the formula from Kuo and Bean (Figure 1E). […] (Arithmetic means and SEM values are given in Results S7.)
# [4] = −90 mV holding potential, 5 Hz train
# [5] = calculated from Inh at single concentration 100 μM, 5 Hz train
# [6] = arithmetic mean, read-out: Ki-Kapp arith
# [7] = arithmetic mean, read-out: Ki-ΔV1/2 arith
# [8] = arithmetic mean, read-out: Kr arith
# [9] = geometric mean, from Inh at −150 mV, read-out: Kr (resting state affinity)
# [10] = geometric mean, from apparent affinity, read-out: Ki−Kapp (inactivated state affinity)
# [11] = geometric mean, from shift of availability curve, read-out: Ki−ΔV1/2 (inactivated state affinity)
# [12] = 300 μM, −90 mV holding potential, 5 Hz train
# [13] = calculated from Inh at single concentration 300 μM, 5 Hz train
smiles,measurement,setting,value
"O=c1n(CCCN2CCN(c3cccc(Cl)c3)CC2)nc2ccccn12 [TRZ, Trazodone]",plasma conc.,[1]; as printed in each cell,1.5 [44] µg/ml
same,plasma conc.,[1]; as printed in the µg/ml cell,3.673 µM
"CN1CCN2c3ncccc3Cc3ccccc3C2C1 (stereo not shown) [MRZ, Mirtazapine]",τon,[2],3.99 s
same,UD (use-dependence of the inhibition),[2]; 5 Hz train,1.14
same,τoff,[2],7.47 s
same,Rev (reversibility),[2],0.89
same,inhibition at 100 µM,[2]; [4],43%
same,potency estimated from few doses,[2]; [5],132 µM
same,inhibition at 100 µM,[3],24%
same,Ki,[3]; [6],7.94 µM
same,Ki,[3]; [7],5.65 µM
same,Kd,[3]; [8],317 µM
same,Kd,[3]; [9],317 µM
same,Ki,[3]; [10],7.62 µM
same,Ki,[3]; [11],5.63 µM
"CNCCC(Oc1ccc(C(F)(F)F)cc1)c1ccccc1 (stereo not shown) [FLX, Fluoxetine]",plasma conc.,[1]; as printed in each cell,0.38 [44] µg/ml
same,plasma conc.,[1]; as printed in the µg/ml cell,1.099 µM
"CC(NC(C)(C)C)C(=O)c1cccc(Cl)c1 (stereo not shown) [BPR, Bupropion]",τon,[2],4.6 s
same,UD (use-dependence of the inhibition),[2]; 5 Hz train,1.04
same,τoff,[2],12.45 s
same,Rev (reversibility),[2],0.92
same,inhibition at 100 µM,[2]; [4],15%
same,potency estimated from few doses,[2]; [5],565 µM
same,inhibition at 100 µM,[3],16%
same,Ki,[3]; [6],27.4 µM
same,Ki,[3]; [7],29.1 µM
same,Kd,[3]; [8],733 µM
same,Kd,[3]; [9],604 µM
same,Ki,[3]; [10],25.5 µM
same,Ki,[3]; [11],26 µM
"O=C(O)Cc1ccccc1Nc1c(Cl)cccc1Cl [DIC, Diclofenac]",plasma conc.,[1]; as printed in each cell,2 [44] µg/ml
same,plasma conc.,[1]; as printed in the µg/ml cell,6.287 µM
same,τon,[2],7.19 s
same,UD (use-dependence of the inhibition),[2]; 5 Hz train,1.01
same,τoff,[2],26.43 s
same,Rev (reversibility),[2],0.95
same,potency estimated from few doses,[2]; [5],561 µM
same,inhibition at 100 µM,[3],3%
same,Ki,[3]; [6],98.4 µM
same,Ki,[3]; [7],102 µM
same,Kd,[3]; [8],3300 µM
same,Kd,[3]; [9],3120 µM
same,Ki,[3]; [10],87.8 µM
same,Ki,[3]; [11],81 µM
"NS(=O)(=O)Cc1noc2ccccc12 [ZON, Zonisamide]",plasma conc.,[1]; as printed in each cell,28.4 [44] µg/ml
same,plasma conc.,[1]; as printed in the µg/ml cell,133.82 µM
same,inhibition at 300 µM,[2]; [12],9%
same,potency estimated from few doses,[2]; [13],3030 µM
"C#CCN(C)[C@H](C)Cc1ccccc1 [DPR, R-(-)-Deprenyl]",IC50 compared to plasma concentration,[2],exceedingly high
same,Inh (inhibited fraction),[2]; [12],0.22
"Fc1ccc(C(c2ccc(F)cc2)N2CCN(C/C=C/c3ccccc3)CC2)cc1 [FLR, Flunarizine]",plasma conc.,[1]; as printed in each cell,0.06 [58] µg/ml
same,plasma conc.,[1]; as printed in the µg/ml cell,0.113 µM
"O=C(CCCN1CCC(O)(c2ccc(Cl)cc2)CC1)c1ccc(F)cc1 [HAL, Haloperidol]",plasma conc.,[1]; as printed in each cell,0.02 [44] µg/ml
same,plasma conc.,[1]; as printed in the µg/ml cell,0.053 µM
"CCN(CC)CCNC(=O)c1ccc(N)cc1 [PRC, Procainamide]",inhibition at 300 µM,[2]; [12],14%
same,potency estimated from few doses,[2]; [13],2010 µM
"CNC1(C)C2CCC(C2)C1(C)C (stereo not shown) [MEC, Mecamylamine]",plasma conc.,[1]; as printed in each cell,0.02 [60] µg/ml
same,plasma conc.,[1]; as printed in the µg/ml cell,0.118 µM
same,IC50 compared to plasma concentration,[2],exceedingly high
same,inhibition at 100 µM,[2]; [4],5%
same,potency estimated from few doses,[2]; [5],2760 µM

# From publication PMC3004914, “Classification of Drugs Based on Properties of Sodium Channel Inhibition: A Comparative Automated Patch-Clamp Study” (PLoS ONE, 2010)
